Reference: patent publication US9862716B2, “TRKA kinase inhibitors, compositions and methods thereof” (Merck Sharp & Dohme Corp., priority 2014, dated 2018)

Molecular target: T1, human TrkA receptor (Homo sapiens, UniProt P04629)
T1 construct: host or cells: U2OS cells (PathHunter cell line)
Test: DiscoverX PathHunter TrkA functional assay (NGF-stimulated U2OS cells)
Format: cell-based
Conditions: U2OS cells expressing human TrkA-PK, Shc1-EA and p75NTR; compound 1 h, then NGF at ~80% of maximal response for 3 h; luminescence

T1 sequence (P04629 33-796): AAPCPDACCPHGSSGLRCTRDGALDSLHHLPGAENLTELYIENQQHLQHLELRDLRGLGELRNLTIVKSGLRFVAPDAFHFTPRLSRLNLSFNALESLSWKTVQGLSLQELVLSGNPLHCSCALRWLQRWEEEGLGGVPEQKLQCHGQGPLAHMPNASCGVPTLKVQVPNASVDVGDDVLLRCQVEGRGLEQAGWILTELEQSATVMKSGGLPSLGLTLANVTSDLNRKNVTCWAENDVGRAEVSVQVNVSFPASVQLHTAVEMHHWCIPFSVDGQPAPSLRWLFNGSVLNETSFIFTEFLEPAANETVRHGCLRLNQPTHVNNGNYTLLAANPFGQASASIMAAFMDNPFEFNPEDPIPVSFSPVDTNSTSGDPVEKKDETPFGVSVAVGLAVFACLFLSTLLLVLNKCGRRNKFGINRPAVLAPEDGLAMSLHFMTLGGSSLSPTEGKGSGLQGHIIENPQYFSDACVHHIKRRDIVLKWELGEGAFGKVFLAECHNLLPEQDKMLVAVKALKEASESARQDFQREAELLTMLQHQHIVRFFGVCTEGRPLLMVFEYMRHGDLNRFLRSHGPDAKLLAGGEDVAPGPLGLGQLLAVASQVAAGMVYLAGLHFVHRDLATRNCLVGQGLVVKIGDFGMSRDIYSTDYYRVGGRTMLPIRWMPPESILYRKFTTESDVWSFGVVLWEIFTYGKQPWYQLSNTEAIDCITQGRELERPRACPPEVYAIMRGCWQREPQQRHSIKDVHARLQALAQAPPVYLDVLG

| SMILES | IC50 [nM] |
| --- | --- |
| O=C(Nc1c(-c2ccccc2)nc2ccccn12)c1ccc(OC(F)(F)F)cc1 [Compound 1, N-(2-phenylimidazo[1,2-a]pyridin-3-yl)-4-(trifluoromethoxy) benzamide] | 550 |
| O=C(Nc1c(-c2ccccc2)nc2sccn12)c1ccc(C(F)(F)F)cc1F [Compound 2, 2-fluoro-N-(6-phenylimidazo[2,1-b][1,3]thiazol-5-yl)-4-(trifluoromethyl) benzamide] | 139 |
| Cn1ccc(-c2cc(C(=O)Nc3c(-c4ccccc4)nc4ncccn34)ccc2C(F)(F)F)n1 [Compound 3, 3-(1-methyl-1H-pyrazol-3-yl)-N-(2-phenylimidazo[1,2-a]pyrimidin-3-yl)-4-(trifluoromethyl) benzamide] | 5.9 |
| Cn1ccc(-c2cc(C(=O)Nc3c(-c4ccccc4)nc4ccccn34)ccc2C(F)(F)F)n1 [Compound 4, 3-(1-methyl-1H-pyrazol-3-yl)-N-(2-phenylimidazo[1,2-a]pyridin-3-yl)-4-(trifluoromethyl) benzamide] | 1.4 |
| Cn1ccc(-c2cc(C(=O)Nc3c(-c4ccccn4)nc4ccccn34)ccc2C(F)(F)F)n1 [Compound 5, 3-(1-methyl-1H-pyrazol-3-yl)-N-(2-pyridin-2-ylimidazo[1,2-a]pyridin-3-yl)-4-(trifluoromethyl) benzamide] | 12 |
| Cn1ccc(-c2cc(C(=O)Nc3c(-c4ccccc4)nc4cccnn34)ccc2C(F)(F)F)n1 [Compound 6, 3-(1-methyl-1H-pyrazol-3-yl)-N-(2-phenylimidazo[1,2-b]pyridazin-3-yl)-4-(trifluoromethyl) benzamide] | 3.9 |
| CC(C)c1cccc2nc(-c3ccccc3)c(NC(=O)c3ccc(C(F)(F)F)cc3F)n12 [Compound 7, 2-fluoro-N-[5-(1-methylethyl)-2-phenylimidazo[1,2-a]pyridin-3-yl]-4-(trifluoromethyl) benzamide] | 264 |
| Cn1ccc(-c2cc(C(=O)Nc3c(-c4ccncn4)nc4ccccn34)ccc2C(F)(F)F)n1 [Compound 8, 3-(1-methyl-1H-pyrazol-3-yl)-N-(2-pyrimidin-4-ylimidazo[1,2-a]pyridin-3-yl)-4-(trifluoromethyl) benzamide] | 568 |
| O=C(Nc1c(-c2ccccc2)nc2ccccn12)c1ccc(C(F)(F)F)c(-c2cc[nH]n2)c1 [Compound 9, N-(2-phenylimidazo[1,2-a]pyridin-3-yl)-3-(1H-pyrazol-3-yl)-4-(trifluoromethyl) benzamide] | 8.8 |
| O=C(Nc1c(-c2ccno2)nc2ccccn12)c1ccc(C(F)(F)F)cc1F [Compound 10, 2-fluoro-N-(2-isoxazol-5-ylimidazo[1,2-a]pyridin-3-yl)-4-(trifluoromethyl) benzamide] | 1920 |
| O=C(Nc1c(-c2ccccc2)nc2ccccn12)c1ccc(C(F)(F)F)c(-c2ccn(C(F)F)n2)c1 [Compound 11, 3-[1-(difluoromethyl)-1H-pyrazol-3-yl]-N-(2-phenylimidazo[1,2-a]pyridin-3-yl)-4-(trifluoromethyl) benzamide] | 3.2 |
| Cn1ccc(-c2cc(C(=O)Nc3c(-c4ccccc4)nc4sccn34)ccc2C(F)(F)F)n1 [Compound 12, 3-(1-methyl-1H-pyrazol-3-yl)-N-(6-phenylimidazo[2,1-b][1,3]thiazol-5-yl)-4-(trifluoromethyl) benzamide] | 1.9 |
| Cc1cnn(-c2nc3ccccn3c2NC(=O)c2ccc(C(F)(F)F)c(-c3ccn(C)n3)c2)c1 [Compound 13, 3-(1-methyl-1H-pyrazol-3-yl)-N-[2-(4-methyl-1H-pyrazol-1-yl)imidazo[1,2-a]pyridin-3-yl]-4-(trifluoromethyl) benzamide] | 17 |
| Cc1coc(-c2cc(C(=O)Nc3c(-c4ccccc4)nc4ccccn34)ccc2C(F)(F)F)n1 [Compound 14, 3-(4-methyl-1,3-oxazol-2-yl)-N-(2-phenylimidazo[1,2-a]pyridin-3-yl)-4-(trifluoromethyl) benzamide] | 3.3 |
| Cc1ccc(C(=O)Nc2c(-c3ccccc3)nc3ccccn23)cc1-c1ccn(C)n1 [Compound 15, 4-methyl-3-(1-methyl-1H-pyrazol-3-yl)-N-(2-phenylimidazo[1,2-a]pyridin-3-yl)benzamide] | 26 |
| Cc1nc(-c2nc3ccccn3c2NC(=O)c2ccc(C(F)(F)F)c(-c3ccn(C)n3)c2)co1 [Compound 16, N-[2-(2-methyl-1,3-oxazol-4-yl)imidazo[1,2-a]pyridin-3-yl]-3-(1-methyl-1H-pyrazol-3-yl)-4-(trifluoromethyl) benzamide] | 556 |
| Cn1ccc(-c2cc(C(=O)Nc3c(-c4ccccc4)nc4scnn34)ccc2C(F)(F)F)n1 [Compound 17, 3-(1-methyl-1H-pyrazol-3-yl)-N-(6-phenylimidazo[2,1-b][1,3,4]thiadiazol-5-yl)-4-(trifluoromethyl) benzamide] | 9.2 |
| O=C(Nc1c(-c2ccccc2)nc2c(F)cccn12)c1ccc(C(F)(F)F)c(-c2cc[nH]n2)c1 [Compound 18, N-(8-fluoro-2-phenylimidazo[1,2-a]pyridin-3-yl)-3-(1H-pyrazol-3-yl)-4-(trifluoromethyl) benzamide] | 11 |

More lines, now with the values ahead:

| IC50 [nM] | SMILES |
| --- | --- |
| 0.85 | CC(O)c1ccn2nc(-c3ccccc3)c(NC(=O)c3cc(-c4ccn(C)n4)c(C(F)(F)F)cc3F)c2c1 (single isomer, unassigned) [Compound 107, (R or S)-2-fluoro-N-[5-(1-hydroxyethyl)-2-phenylpyrazolo[1,5-a]pyridin-3-yl]-5-(1-methyl-1H-pyrazol-3-yl)-4-(trifluoromethyl) benzamide] |
| 1.4 | CC(O)c1ccc2[nH]c(-c3ccccc3)c(NC(=O)c3cc(-c4ccn(C)n4)c(C(F)(F)F)cc3F)c2c1 (single isomer, unassigned) [Compound 112, (R or S)-2-fluoro-N-[5-(1-hydroxyethyl)-2-phenyl-1H-indol-3-yl]-5-(1-methyl-1H-pyrazol-3-yl)-4-(trifluoromethyl) benzamide] |
| 1.7 | CC(O)c1ccc2[nH]c(-c3ccccc3)c(NC(=O)c3cc(-c4ccn(C)n4)c(C(F)(F)F)cc3F)c2c1 (single isomer, unassigned) [Compound 113, (R or S)-2-fluoro-N-[5-(1-hydroxyethyl)-2-phenyl-1H-indol-3-yl]-5-(1-methyl-1H-pyrazol-3-yl)-4-(trifluoromethyl) benzamide] |
| 15 | Cn1ccc(-c2cc(C(=O)Nc3c(-c4ccccc4)nc4cc(C5CCCN5)ccn34)ccc2C(F)(F)F)n1 (single isomer, unassigned) [Compound 114, (R or S)-3-(1-methyl-1H-pyrazol-3-yl)-N-(2-phenyl-7-pyrrolidin-2-ylimidazo[1,2-a]pyridin-3-yl)-4-(trifluoromethyl) benzamide] |
| 14 | Cc1nc(-c2nc3ccccn3c2NC(=O)c2ccc(C(F)(F)F)c(-c3ccn(C)n3)c2)cs1 [Compound 19, 3-(1-methyl-1H-pyrazol-3-yl)-N-[2-(2-methyl-1,3-thiazol-4-yl)imidazo[1,2-a]pyridin-3-yl]-4-(trifluoromethyl) benzamide] |
| 0.73 | Cn1ccc(-c2cc(C(=O)Nc3c(-c4ccccc4)nc4ccccn34)c(Cl)cc2C(F)(F)F)n1 [Compound 20, 2-chloro-5-(1-methyl-1H-pyrazol-3-yl)-N-(2-phenylimidazo[1,2-a]pyridin-3-yl)-4-(trifluoromethyl) benzamide] |
| 3.8 | Cn1ccc(-c2cc(C(=O)Nc3c(-c4ccccc4)nc4ccc(F)cn34)ccc2C(F)(F)F)n1 [Compound 21, N-(6-fluoro-2-phenylimidazo[1,2-a]pyridin-3-yl)-3-(1-methyl-1H-pyrazol-3-yl)-4-(trifluoromethyl) benzamide] |
| 1.9 | Cn1ccc(-c2cc(C(=O)Nc3c(-c4ccccc4)nc4c(F)cccn34)ccc2C(F)(F)F)n1 [Compound 22, N-(8-fluoro-2-phenylimidazo[1,2-a]pyridin-3-yl)-3-(1-methyl-1H-pyrazol-3-yl)-4-(trifluoromethyl) benzamide] |
| 2 | Cn1ccc(-c2cc(C(=O)Nc3c(-c4ccncc4)nc4ccccn34)c(Cl)cc2C(F)(F)F)n1 [Compound 23, 2-chloro-5-(1-methyl-1H-pyrazol-3-yl)-N-(2-pyridin-4-ylimidazo[1,2-a]pyridin-3-yl)-4-(trifluoromethyl) benzamide] |
| 2.8 | Cn1ccc(-c2cc(C(=O)Nc3c(-c4ccccc4)nc4ncccn34)c(Cl)cc2C(F)(F)F)n1 [Compound 24, 2-chloro-5-(1-methyl-1H-pyrazol-3-yl)-N-(2-phenylimidazo[1,2-a]pyrimidin-3-yl)-4-(trifluoromethyl) benzamide] |
| 1.4 | CNC(=O)c1ccn2c(NC(=O)c3ccc(C(F)(F)F)c(-c4ccn(C)n4)c3)c(-c3ccccc3)nc2c1 [Compound 25, N-methyl-3-({[3-(1-methyl-1H-pyrazol-3-yl)-4-(trifluoromethyl)phenyl]carbonyl}amino)-2-phenylimidazo[1,2-a]pyridine-7-carboxamide] |
| 1.4 | Cn1ccc(-c2cc(C(=O)Nc3c(-c4ccccc4)nc4cc(CO)ccn34)ccc2C(F)(F)F)n1 [Compound 26, N-[7-(hydroxymethyl)-2-phenylimidazo[1,2-a]pyridin-3-yl]-3-(1-methyl-1H-pyrazol-3-yl)-4-(trifluoromethyl) benzamide] |
| 1.8 | Cn1ccc(-c2cc(C(=O)Nc3c(-c4ccccc4)nc4cc(C(C)(C)O)ccn34)ccc2C(F)(F)F)n1 [Compound 27, N-[7-(1-hydroxy-1-methylethyl)-2-phenylimidazo[1,2-a]pyridin-3-yl]-3-(1-methyl-1H-pyrazol-3-yl)-4-(trifluoromethyl) benzamide] |
| 1.3 | CN(C)C(=O)c1ccn2c(NC(=O)c3ccc(C(F)(F)F)c(-c4ccn(C)n4)c3)c(-c3ccccc3)nc2c1 [Compound 28, N,N-dimethyl-3-({[3-(1-methyl-1H-pyrazol-3-yl)-4-(trifluoromethyl)phenyl]carbonyl}amino)-2-phenylimidazo[1,2-a]pyridine-7-carboxamide] |
| 1.4 | Cn1ccc(-c2cc(C(=O)Nc3c(-c4ccccc4)nc4cc(C(=O)N5CCC5)ccn34)ccc2C(F)(F)F)n1 [Compound 29, N-[7-(azetidin-1-ylcarbonyl)-2-phenylimidazo[1,2-a]pyridin-3-yl]-3-(1-methyl-1H-pyrazol-3-yl)-4-(trifluoromethyl) benzamide] |
